The CATMoS acute toxicity set (Mansouri et al. 2021)

Assay: GHS categories as the set defines them, by LD50: 1 up to 5, 2 up to 50, 3 up to 300, 4 up to 2000, 5 above 2000 mg/kg
Settings: rat; in vivo; po

| SMILES | GHS category |
| --- | --- |
| CCOC(=O)[C@H](CCc1ccccc1)N[C@H]1CS[C@H](c2cccs2)CN(CC(=O)O)C1=O | 5 |
| Nc1cc(Br)c(O)c2c(O)c3c(N)cc(Br)c(O)c3c(O)c12 | 5 |
| C=C(C)C(=O)OCCNC(C)(C)C | 4 |
| O=S(=O)(O)c1cc(Nc2nc(Nc3ccccc3)nc(Nc3ccccc3)n2)ccc1C=Cc1ccc(Nc2nc(Nc3ccccc3)nc(Nc3ccccc3)n2)cc1S(=O)(=O)O | 5 |
| CCCC(=O)OCCC(C)CCCC(C)C (configuration not stated) | 5 |
| CC(C)=CCC/C(C)=C\COC(=O)C(C)C | 5 |
| C=COCCOCCOCCOC=C | 5 |
| CCCc1nc2ccnn2c(NCCN2CCCC2)c1Cc1ccc(-c2ccccc2-c2nn[nH]n2)cc1 | 4 |
| O=CC(O)C(O)C(O)C(O)COC1OC(CO)C(O)C(O)C1O (configuration not stated) | 4 |
| CC(C)(C)c1cc(S)c(O)c(C(C)(C)C)c1 | 5 |
| O=C(O)c1ccccc1SSc1ccccc1C(=O)O | 5 |
| CNC(=O)C(=NNc1ccc(OC)cc1)C(C)=O | 5 |
| CCOC(=O)OCCOc1cc(O)c2c(c1N)C(=O)c1ccccc1C2=O | 5 |
| CC(C)OC(=O)Nc1nc(N2CC=CCC2)cc2nc(=O)on12 | 5 |
| COc1cc(OC)nc(NC(=O)NS(=O)(=O)c2ncccc2OCC(F)(F)F)n1 | 5 |
| Cn1c(N)c(NC=O)c(=O)n(C)c1=O | 5 |
| CCN(CC)CCc1nc(-c2cccc(O)c2)no1 | 5 |
| CCCNC(=O)c1sc(-c2ccccc2OC)nc1C | 5 |
| COC(=O)C(C)CCC(=O)N(C)C (configuration not stated) | 5 |
| COC(=O)CCCCC(=O)OC | 5 |
| CC(C)CCOCCC(C)C | 5 |
| CCSCCCSc1nnnn1C | 4 |
| O=Cc1c(O)ccc2ccccc12 | 5 |
| CCCOc1nn(C(=O)NS(=O)(=O)c2ccccc2C(=O)OC)c(=O)n1C | 5 |
| CNC[C@@H]1CC[C@@H](N)[C@@H](O[C@H]2[C@H](O)[C@@H](O[C@H]3OC[C@](C)(O)[C@H](NC)[C@H]3O)[C@H](N)C[C@@H]2N)O1 | 5 |
| Cc1ccc(S(=O)(=O)NC(=O)Nc2cccc(OS(=O)(=O)c3ccc(C)cc3)c2)cc1 | 5 |

| SMILES | GHS category |
| --- | --- |
| COc1ccc(N(CCCC(=O)O)C(=O)c2ccc(Cl)cc2)cc1 | 5 |
| CNc1ccc([N+](=O)[O-])cc1 | 5 |
| CC1(C)S[C@@H]2[C@H](NC(=O)C(C(=O)O)c3ccccc3)C(=O)N2[C@H]1C(=O)O (some centres not stated) | 5 |
| CNc1nc(Nc2ccccc2)nc(Nc2ccc(C=Cc3ccc(Nc4nc(NC)nc(Nc5ccccc5)n4)cc3S(=O)(=O)O)c(S(=O)(=O)O)c2)n1 | 5 |
| CCOC(=O)c1ccc(NC(=O)C=C(C)C=CC=C(C)C=CC2=C(C)CCCC2(C)C)cc1 | 5 |
| O=C1CCCCCN1C(=O)Nc1ccc(Cc2ccc(NC(=O)N3CCCCCC3=O)cc2)cc1 | 5 |
| O=C1CC[C@H]2CO[C@@H]1O2 | 5 |
| Cc1cc(NC(=O)NC(=O)c2c(F)cccc2F)nc(C)c1-c1ccc(Cl)cc1 | 5 |
| CC(C)C(=O)OCC=Cc1ccccc1 | 5 |
| CN1C(CSCC(F)(F)F)Nc2cc(Cl)c(S(N)(=O)=O)cc2S1(=O)=O (configuration not stated) | 2 |
| CCCCCCCOCCCCN1CCCCCC1=O | 5 |
| CC(C)C1OCCN1CCOC(=O)NCCCCCCNC(=O)OCCN1CCOC1C(C)C (configuration not stated) | 5 |
| C[C@@H]1O[C@@H](O[C@@H]2[C@@H](O)[C@H](OCCc3ccc(O)c(O)c3)O[C@H](CO)[C@H]2OC(=O)C=Cc2ccc(O)c(O)c2)[C@H](O)[C@H](O)[C@H]1O | 5 |
| CCCCCBr | 5 |
| CCOC(=O)[C@H](CCc1ccccc1)N[C@@H](C)C(=O)N1[C@H](C(=O)O)C[C@H]2CCCC[C@@H]21 | 5 |
| CCCCN(CCCC)C(=S)SCSC(=S)N(CCCC)CCCC | 5 |
| CC1COC(Cn2cncn2)(c2cc3cc(Cl)cc(Cl)c3o2)O1 (configuration not stated) | 4 |
| CCCCC(CC)COC(=O)c1ccc(C(=O)OCC(CC)CCCC)c(C(=O)OCC(CC)CCCC)c1 (configuration not stated) | 5 |
| O=S(=O)(O)c1ccc(Nc2nc(Cl)nc(Cl)n2)cc1 | 5 |
| COC(=O)c1ccc(C(=O)Nc2cc(Cl)ccc2Cl)cc1[N+](=O)[O-] | 4 |
| NC[C@@H]1CC[C@@H](N)[C@@H](O[C@H]2[C@H](O)[C@@H](O[C@H]3O[C@H](CO)[C@@H](O)[C@H](N)[C@H]3O)[C@H](N)C[C@@H]2N)O1 | 5 |
| CCCc1c(Cc2ccc(-c3ccccc3C(N)=O)cc2)c(=O)nc2[nH]ncn12 | 4 |
| Brc1cc(Br)c(Oc2nc(Oc3c(Br)cc(Br)cc3Br)nc(Oc3c(Br)cc(Br)cc3Br)n2)c(Br)c1 | 5 |
| Cn1c(=O)oc2cc(C(=O)c3ccc(Cl)cc3)ccc21 | 5 |
| CCC(C)=NO[Si](ON=C(C)CC)(ON=C(C)CC)c1ccccc1 | 5 |
| Cn1c(=O)c2c(ncn2CC(=O)N2CCOCC2)n(C)c1=O | 5 |

| SMILES | GHS category |
| --- | --- |
| NCCNS(=O)(=O)c1cccc2cnccc12 | 4 |
| CCOC(=O)C1=C(COCCN2C(=O)c3ccccc3C2=O)NC(C)=C(C(=O)OC)C1c1ccccc1Cl (configuration not stated) | 5 |
| CCCCCCCCCCCCCCCCOC(=O)OOC(=O)OCCCCCCCCCCCCCCCC | 5 |
| CCC(C(=O)NC(=O)NC(C)=O)c1ccccc1 (configuration not stated) | 5 |
| CO[Si](C)(C)CCl | 4 |
| NC(=O)[C@@H]1CCCN1C(=O)[C@H](Cc1cnc[nH]1)NC(=O)[C@@H]1CCC(=O)N1 | 5 |
| CC1(C)O[C@@H]2C[C@H]3[C@@H]4CCC5=CC(=O)CC[C@]5(C)[C@@]4(F)[C@@H](O)C[C@]3(C)[C@]2(C(=O)CCl)O1 | 5 |
| C=COCCCCCCCCCCCCCCCCCC | 5 |
| O=C(CCl)OC(=O)CCl | 3 |
| CC(C)=CCC(C#N)(CCN(C)C)Cc1cccc2ccccc12 (configuration not stated) | 4 |
| CCC(C)C(NC(=O)C(Cc1cnc[nH]1)NC(=O)C(CCSC)NC(=O)C(CS)NC(=O)C(NC(=O)CNC(=O)CNC(=O)C(CC(N)=O)NC(=O)C(CC(C)C)NC(=O)C(CS)NC(=O)C(Cc1ccc(O)cc1)NC(=O)CNC(=O)C(CC(=O)O)NC(=O)C(Cc1ccc(O)cc1)NC(=O)C(CO)NC(=O)C(CO)NC(=O)C1CCCN1C(=O)C(CS)NC(=O)CNC(=O)C1CCCN1C(=O)C(Cc1ccc(O)cc1)NC(=O)C(CO)NC(=O)C(N)CC(N)=O)C(C)C)C(=O)NC(CCC(=O)O)C(=O)NC(CO)C(=O)NC(CC(C)C)C(=O)NC(CC(=O)O)C(=O)NC(CO)C(=O)NC(Cc1ccc(O)cc1)C(=O)NC(C(=O)NC(CS)C(=O)NC(CC(N)=O)C(=O)NC(CS)C(=O)NC(C(=O)NC(C(=O)NCC(=O)NC(Cc1ccc(O)cc1)C(=O)NC(CO)C(=O)NCC(=O)NC(CC(=O)O)C(=O)NC(CCCNC(=N)N)C(=O)NC(CS)C(=O)NC(CCC(N)=O)C(=O)NC(C(=O)NC(CCCNC(=N)N)C(=O)NC(CC(=O)O)C(=O)NC(CC(C)C)C(=O)NC(CCCNC(=N)N)C(=O)NC(Cc1c[nH]c2ccccc12)C(=O)NC(Cc1c[nH]c2ccccc12)C(=O)NC(CCC(=O)O)C(=O)NC(CC(C)C)C(=O)NC(CCCNC(=N)N)C(=O)O)C(C)O)C(C)CC)C(C)C)C(C)O (configuration not stated) | 5 |
| CC(=O)OCC(C)=CCCC1(C)C2CC3C(C2)C31C (configuration not stated) | 5 |
| N#Cc1ccc(NC(=O)Oc2ccccc2)cc1 | 5 |
| Cc1cc(C2(c3ccc(O)c(C)c3)CCCCC2)ccc1O | 5 |
| Cc1ccc2c(c1)c(-c1ccccc1)nn2CCCN(C)C | 4 |
| CCCCCCCCCCCCCCCCOC(=O)Oc1c(Cl)cc(C(=O)OCC)cc1Cl | 5 |
| CC(C)OC(=O)c1ccccc1OC(N)=O | 5 |
| Cc1cc(C)c(O)c(-c2cc(C)cc(C)c2O)c1 | 5 |
| Clc1ccc(C2=NCOCS2)cc1 | 4 |
| CC(=O)Oc1ccc(C(c2ccc(OS(=O)(=O)O)cc2)c2ccccn2)cc1 (configuration not stated) | 5 |
| CCOC(=O)C1=C(C)NC(CCl)=C(C(=O)OCC)C1c1cccc([N+](=O)[O-])c1 (configuration not stated) | 4 |
| CCOC(=O)[C@H](CCc1ccccc1)N[C@H]1CCc2ccccc2N(CC(=O)O)C1=O | 5 |
| Cc1c(C)c2c(c(C)c1OC(=O)C(C)(C)Oc1ccc(Cl)cc1)CC[C@@](C)(CCC[C@H](C)CCC[C@H](C)CCCC(C)C)O2 | 5 |
| CCCCNC(=O)CC[C@H](NC(=O)C(CC)CCCC)C(=O)NCCCC (some centres not stated) | 5 |
| CC1=CC[C@H](CC=O)C1(C)C | 5 |
| C=Cc1ccc(O)c(C=C)c1 | 5 |

| SMILES | GHS category |
| --- | --- |
| COc1ccc(C=Nc2ccccc2C(=O)O)cc1 | 4 |
| c1ccc(COc2ccc3ccccc3c2)cc1 | 5 |
| CNS(=O)(=O)c1ccccc1-c1nnc(N)s1 | 5 |
| COc1ccccc1N1CCN(/C(N)=N/c2cc(Cl)cc(Cl)c2)CC1 | 4 |
| CC(SC(=O)c1cccs1)C(=O)NCC(=O)O (configuration not stated) | 5 |
| CC(=O)c1ccc(Oc2ccc(Cl)cc2)cc1Cl | 5 |
| C=CC(C)=CCC1OC1(C)C (configuration not stated) | 5 |
| CCN(CC)CCC1=NC(=C2C=CC=CC2=O)NO1 | 5 |
| N#Cc1ccccc1-c1ccc(CBr)cc1 | 5 |
| Cn1nnnc1SCCCSc1ccncc1 | 4 |
| CC(C)(O)CCC(C)(C)O | 5 |
| O=C(Nc1ccc2[nH]c(=O)[nH]c2c1)c1cc2ccccc2c(N=Nc2cc(Cl)ccc2Cl)c1O | 5 |
| CCc1cccc(OP(=O)(Oc2cccc(CC)c2)Oc2cccc(CC)c2)c1 | 5 |
| CC(=O)N(CC(O)CO)c1c(I)c(C(=O)NCC(O)CO)c(I)c(C(=O)NCC(O)CO)c1I (configuration not stated) | 5 |
| CC1CC(C)C(C)CC1C (configuration not stated) | 5 |
| Nc1cc(C(=O)O)ccc1Cl | 5 |
| C=C[Si](C)(N(CC)C(C)=O)N(CC)C(C)=O | 4 |
| CCN(CCCSc1nnnn1C)C(=O)C1CCCCC1 | 4 |
| CCCCCCCCCCCCCCCCCCCC | 5 |
| CCC/C=C/COC(=O)CC | 5 |
| O=C(Nc1ccccc1C(=O)O)C(=Cc1ccccc1)C(=O)Nc1ccccc1C(=O)O | 5 |
| CC[C@H](C)C(=O)O[C@H]1C[C@@H](C)C=C2C=C[C@H](C)[C@H](CC[C@@H]3C[C@@H](O)CC(=O)O3)[C@H]21 | 5 |
| CCCCCOC(=O)CCCCC | 5 |
| COCC1COC(Cn2cncn2)(c2cc3ccccc3o2)O1 (configuration not stated) | 4 |
